Measurements: PMC5738391, “Three classes of ligands each bind to distinct sites on the orphan G protein-coupled receptor GPR84” (Scientific Reports, 2017)

Legend:
[1] = target: T1, Arg^172Ala GPR84-Cys^352Ile Gαi2 fusion protein (Homo sapiens, UniProt Q9NQS5, R172A); assay: [35S]GTPγS binding, Arg172Ala mutant fusion protein; assay type: biochemical
T1 construct: Cys352Ile Gαi2 (fusion partner, same polypeptide); expressed in transfected cells; host or cells: membranes of Flp-In T-REx 293 cells, doxycycline-induced
T1 sequence (Q9NQS5 2-396 R172A): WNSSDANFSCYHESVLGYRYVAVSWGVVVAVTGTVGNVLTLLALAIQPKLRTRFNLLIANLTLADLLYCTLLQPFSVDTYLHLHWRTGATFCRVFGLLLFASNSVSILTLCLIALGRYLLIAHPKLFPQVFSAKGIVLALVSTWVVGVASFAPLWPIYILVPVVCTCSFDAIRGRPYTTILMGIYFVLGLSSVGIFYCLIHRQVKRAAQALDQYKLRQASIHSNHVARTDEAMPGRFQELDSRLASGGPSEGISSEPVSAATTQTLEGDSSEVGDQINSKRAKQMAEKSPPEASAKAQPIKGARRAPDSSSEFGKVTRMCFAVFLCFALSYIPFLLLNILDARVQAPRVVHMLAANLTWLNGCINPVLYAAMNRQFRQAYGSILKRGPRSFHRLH
From the text: To try to identify how a MCFA might interact with GPR84 we turned to homology modelling studies. Although GPR84 is not closely related to the other GPCRs that respond to either short chain (FFA2, FFA3) or long chain (FFA1, FFA4) fatty acids[8],[9], in each of the other cases the carboxylate of the fatty acid is co-ordinated by one or more arginine residues located at or near the extracellular surface[12]–[14]. […] As we have highlighted recently[9] GPR84 and the β2-adrenoceptor are only distantly related whilst, of the currently available atomic level GPCR structures, the orexin OX1 receptor[34] has highest overall sequence identity (31%) with GPR84. We, therefore, generated and employed a new homology model of GPR84 based on the transmembrane domain architecture of the OX1 receptor (Fig. 6). However, because ECL2 of GPR84 is very similar in sequence to that of rhodopsin (Fig. 6a), with 43% residue identity over this region, we incorporated this knowledge into the modelling process. In the resulting hybrid model (Fig. 6a) Arg^172 within ECL2 is pointing into the potential binding cavity within the helical bundle. This was not the case when Nikaido et al.,[3] employed the β2-adrenoceptor-based model, probably because the ECL2 sequences of the β2-adrenoceptor and GPR84 have no relatedness. […] To assess this we mutated Arg^172 to Ala within the setting of the GPR84-Cys^352Ile Gαi2 fusion protein. […] Equivalent results were obtained in studies in which the Arg^172Ala mutation was introduced into the FLAG-hGPR84-eYFP construct (Fig. 7b).
FLAG-humanGPR84-Gαi2 fusion proteins were constructed by replacing eYFP within the FLAG-humanGPR84-eYFP-pcDNA5/FRT/TO construct with sequence corresponding to Gαi2 or Cys^352Ile Gαi2 using NotI and XhoI restriction enzymes. Site-directed mutagenesis to generate point mutants of GPR84 was performed according to the QuikChange method (Stratagene, Cheshire, UK). The identity of all constructs was verified by nucleotide sequencing.
Initially, 5 μg of generated membrane protein was pre-incubated for 15 min at 25 °C in assay buffer (20 mM HEPES, 5 mM MgCl2; 160 mM NaCl; 1 μM GDP; 0.05% fatty acid-free bovine serum albumin; pH 7.5) containing the indicated ligand concentrations. […] The reaction was then initiated with addition of [^35S]GTPγS (50 nCi per tube), and the reaction was terminated after 45 minutes incubation at 30 °C by rapid filtration through GF/C glass filters using a 24-well Brandel cell harvester (Alpha Biotech, Glasgow, UK). Unbound radioligand was removed from filters by three washes with ice-cold phosphate buffered saline (pH 7.4) and filters were dried for 2–3 h at room temperature. Dried filters were added to 3 mL of Ultima Gold^TM XR (PerkinElmer Life Sciences, Beaconsfield, UK) and [^35S]GTPγS binding was determined by liquid scintillation spectrometry.

[2] = target: T2, Arg^172Lys GPR84-Cys^352Ile Gαi2 fusion protein (Homo sapiens, UniProt Q9NQS5, R172K); assay: [35S]GTPγS binding, Arg172Lys mutant fusion protein; assay type: biochemical
T2 construct: Cys352Ile Gαi2 (fusion partner, same polypeptide); expressed in transfected cells; host or cells: membranes of Flp-In T-REx 293 cells, doxycycline-induced
T2 sequence (Q9NQS5 2-396 R172K): as the sequence (Q9NQS5 2-396 R172A) above, with A171K counted along it

[3] = target: T3, FLAG-Arg^174Ala hGPR84-eYFP (Homo sapiens, UniProt Q9NQS5, R174A); assay: [35S]GTPγS binding, Arg174Ala mutant receptor; assay type: biochemical
T3 construct: expressed in transfected cells; host or cells: membranes of Flp-In T-REx 293 cells, doxycycline-induced
T3 sequence (Q9NQS5 whole entry R174A): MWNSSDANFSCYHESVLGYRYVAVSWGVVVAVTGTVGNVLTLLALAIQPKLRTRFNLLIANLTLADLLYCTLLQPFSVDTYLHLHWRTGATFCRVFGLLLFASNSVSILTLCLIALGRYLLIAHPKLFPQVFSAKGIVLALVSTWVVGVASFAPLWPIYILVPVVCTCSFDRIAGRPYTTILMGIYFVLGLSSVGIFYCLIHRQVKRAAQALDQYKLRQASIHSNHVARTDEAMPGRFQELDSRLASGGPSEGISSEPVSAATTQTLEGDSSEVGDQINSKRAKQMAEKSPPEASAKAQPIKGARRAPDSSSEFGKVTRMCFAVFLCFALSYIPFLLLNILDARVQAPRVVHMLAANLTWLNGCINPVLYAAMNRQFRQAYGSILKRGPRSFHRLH

[4] = target: GPR84-Cys^352Ile Gαi2 fusion protein (Homo sapiens, UniProt Q9NQS5); assay: [3H]G9543 radioligand binding (saturation and displacement), GPR84-Cys352Ile Gαi2 fusion protein; parameters: Cys352Ile Gαi2 (fusion partner, same polypeptide); expressed in transfected cells; host or cells: membranes of Flp-In T-REx 293 cells, doxycycline-induced; details: displacement assay
Sequence of GPR84-Cys^352Ile Gαi2 fusion protein (Q9NQS5 2-396): as the sequence (Q9NQS5 2-396 R172A) above, with A171R counted along it
Method: [^3H]G9543 is an analog of compounds 104, 107 and 161 with the same characteristic 2-(substituted-alkoxy)-9-substituted-6,7-dihydro-pyrimido[6,1-a]isoquinolin-4-one chemotype. […] Binding was initiated by the addition of membranes (5 µg of protein per tube). All assays were performed at 25 °C for 1 h before termination by the addition of ice-cold phosphate-buffered saline and vacuum filtration through GF/C glass filters using a 24-well Brandel cell harvester (Alpha Biotech, Glasgow, UK). Each reaction tube was washed three times with ice-cold PBS. The filters were allowed to dry for 2–3 h and then placed in 3 ml of Ultima Gold^TM XR. Radioactivity was quantified by liquid scintillation spectrometry. Specific binding was defined as the difference between binding detected in the presence and absence of 1 µM compound 104.
All data are presented as means ± SEM of at least three independent experiments. Data analysis and curve fitting was carried out using the GraphPad Prism software package version 5.0b (GraphPad, San Diego). For functional assays the concentration-response data were plotted on a log axis, with the untreated vehicle control plotted at 1 log unit lower than the lowest ligand concentration, and fitted to a three parameter sigmoidal curve with the Hill slope constrained to equal 1. In case of inhibition experiments with antagonists an equivalent analysis was followed to fit an inverse sigmoidal curve. To perform the statistical analysis of curve parameters, data from multiple experiments were fitted independently and resulting curve fit values were analysed with indicated tests. For radioligand binding data, saturation binding curves were generated by fitting the specific binding, which was obtained by subtracting non-specific from total binding, to a one site specific binding model that allows calculation of Kd values for the radioligand at wild type and mutant receptors. To determine affinity of unlabelled ligands, data obtained in displacement assays were fit to an inverse three parameter sigmoidal curve constrained by radioligand affinity and concentration to allow for Ki calculation.

Row | Compound | agonist response at Arg172Ala mutant [1] | agonist response at Arg172Lys mutant [2] | effect of Arg174Ala mutation on agonist function or potency [3] | ability to compete with [3H]G9543 binding [4]
1 | c1ccc2c(Cc3c[nH]c4ccccc34)c[nH]c2c1 [DIM, 3,-3′-diindolylmethane] | retained full activity | without affecting response | did not affect function or potency | neither C10 nor DIM was able to compete effectively
2 | CCCCCCCCCC(=O)O [C10, decanoic acid] | no response | eliminated response | did not affect function or potency | neither C10 nor DIM was able to compete effectively
